Among the data in PubChem BioAssay AID182 (DTP/NCI, 2004) are T/C values, retold here.

The subject of the test is BDF1 mice, P388/ADR leukemia ip, median survival T/C. As to the kind of experiment: NCI In Vivo Anticancer Drug Screen. Data for tumor model P388 Leukemia resistant to Adriamycin; NSC 123127, Developed at Scr 06 and 41 (intraperitoneal) in B6D2F1 (BDF1) mice. To be noted: endpoint: median survival time, higher = longer survival. Here is the method: The antitumor activity of compounds was measured in mice bearing transplantable tumors. Survival or tumor size were measured and the results are expressed as the measurement made in the treated group (T) divided by the measurement made in the vehicle treated control group (C). The tumor model used in this assay is P388 Leukemia resistant to Adriamycin; NSC 123127, Developed at Scr 06 and 41 (intraperitoneal) in B6D2F1 (BDF1) mice

Values joined by “and” are separate entries in the source; they are usually repeats but may differ in a detail not shown here. Equal entries are not always repeated. Toxic doses and inconclusive results are not listed. Starred links: 1 amine or outer side, 2 acyl side, 3 side chain; linkers in the order of their positions; H or OH if unused. Positions of bridges follow the written chain, without caps; N, C: chain ends. Non-standard residues stand in square brackets, D forms with d. Residues, ends and D or L forms follow the SMILES beside them. Chains are numbered I, II in the order given. Actinocin(9to1) = Cc1c2oc3c(C)ccc(C(=O)[*:1])c3nc-2c(C(=O)[*:2])c(N)c1=O; aThr = C[C@H](O)[C@H](N)C(=O)O; NMeV = CN[C@H](C(=O)O)C(C)C; Sar = CNCC(=O)O

As for `CO[C@H](C(=O)[C@@H](O)[C@@H](C)O)[C@@H]1Cc2cc3cc(OC4CC(OC5CC(O)C(O)C(C)O5)C(O)C(C)O4)c(C)c(O)c3c(O)c2C(=O)[C@H]1OC1CC(OC2CC(OC3CC(C)(O)C(O)C(C)O3)C(O)C(C)O2)C(O)C(C)O1` (stereo partly drawn), the T/C reads like this: (dose: 0.32 mg/kg/injection, schedule: Q01DX005 (ip), vehicle: water) 91 % of control; (dose: 0.54 mg/kg/injection, schedule: Q01DX005 (ip), vehicle: water) 95 % of control; (dose: 0.65 mg/kg/injection, schedule: Q04DX003 (ip), vehicle: water) 89 % of control.

On to `CC(=O)c1cccc(NC2C(N)C(NC(=O)N(C)C)(C(C)O)C(C)(O)C2(O)COC(=O)c2c(C)cccc2O)c1` (stereo not drawn), for which the T/C is 90 % of control (dose: 5.18 mg/kg/injection, schedule: Q04DX003 (ip), vehicle: alkali diluted with saline); 114 % of control (dose: 6.5 mg/kg/injection, schedule: Q04DX003 (ip), vehicle: alkali diluted with saline); 89 % of control (dose: 8.64 mg/kg/injection, schedule: Q04DX003 (ip), vehicle: alkali diluted with saline); 87 % of control (dose: 14.4 mg/kg/injection, schedule: Q04DX003 (ip), vehicle: alkali diluted with saline).

Consider `COC1C(O)C(C)OC(OC2C(Oc3cccc4c(O)c5c(=O)oc6ccc(C)c7c(=O)oc(c34)c5c67)OC(C)C(O)C2O)C1O` (stereo not drawn), for which, under “dose: 43.2 mg/kg/injection, schedule: Q04DX003 (ip), vehicle: Klucel (hydroxypropylcellulose) (HPC)”, the T/C was 87 % of control.

For `C[n+]1ccc(Nc2ccc(NC(=O)c3ccc(Nc4cc[n+](C)c5ccc(N)cc45)cc3)cc2)cc1`, for the setting “dose: 7.2 mg/kg/injection, schedule: Q01DX009 (ip), vehicle: water”, the T/C is 163 % of control.

For `COc1cccc2c1C(=O)c1c(O)c3c(c(O)c1C2=O)CC(O)(C(=O)CO)CC3OC1CC(N)C(O)C(C)O1` (stereo not drawn), the T/C runs as follows: (dose: 1.73 mg/kg/injection, schedule: Q01DX004 (ip), vehicle: water) 103 % of control; (dose: 6.48 mg/kg/injection, schedule: Q04DX003 (ip), vehicle: saline) 107 % of control; (dose: 10.8 mg/kg/injection, schedule: Q04DX003 (ip), vehicle: saline) 93 % of control; (dose: 18.0 mg/kg/injection, schedule: Q04DX003 (ip), vehicle: saline) 106 % of control; (dose: 30.0 mg/kg/injection, schedule: Q04DX003 (ip), vehicle: saline) 94 % of control.

Turning to `CC[C@@]1(O)C[C@H](OC2CC(N(C)C)C(OC3CC(O)C(OC4CCC(=O)C(C)O4)C(C)O3)C(C)O2)c2c(cc3c(c2O)C(=O)c2c(O)ccc(O)c2C3=O)[C@H]1C(=O)OC` (stereo partly drawn), the T/C runs as follows: (dose: 0.65 mg/kg/injection, schedule: Q01DX009 (ip), vehicle: water) 110 % of control; (dose: 1.08 mg/kg/injection, schedule: Q01DX009 (ip), vehicle: water) 120 % of control; (dose: 1.73 mg/kg/injection, schedule: Q04DX003 (ip), vehicle: water) 115 % of control and 124 % of control; (dose: 2.5 mg/kg/injection, schedule: Q04DX003 (ip), vehicle: water) 116 % of control; (dose: 2.88 mg/kg/injection, schedule: Q04DX003 (ip), vehicle: water) 119 % of control; (dose: 3.0 mg/kg/injection, schedule: Q01DX009 (ip), vehicle: water) 90 % of control. The T/C was 119 % of control (dose: 4.8 mg/kg/injection, schedule: Q04DX003 (ip), vehicle: other); 150 % of control (dose: 4.8 mg/kg/injection, schedule: Q04DX003 (ip), vehicle: water); 110 % of control (dose: 5.0 mg/kg/injection, schedule: Q04DX003 (ip), vehicle: water).

Regarding `N[C@@H](Cc1ccc(N(CCCl)CCCl)cc1)C(=O)O`, the T/C (dose: 3.6 mg/kg/injection, schedule: Q01DX001 (ip), vehicle: saline) is 313 % of control; the T/C (dose: 6.0 mg/kg/injection, schedule: Q01DX001 (ip), vehicle: saline) was 507 % of control; the T/C (dose: 10.0 mg/kg/injection, schedule: Q01DX001 (ip), vehicle: saline) is 507 % of control; the T/C (dose: 16.7 mg/kg/injection, schedule: Q01DX001 (ip), vehicle: saline) is 406 % of control.

For `Cc1c2oc3c(C)ccc(C(=O)N[C@@H]4C(=O)N[C@H](C(C)C)C(=O)N5CCC[C@H]5C(=O)N(C)CC(=O)N(C)[C@@H](C(C)C)C(=O)O[C@H]4C)c3nc-2c(C(=O)N[C@@H]2C(=O)N[C@H](C(C)C)C(=O)N3CCC[C@H]3C(=O)N(C)CC(=O)N(C)[C@@H](C(C)C)C(=O)O[C@H]2C)c(N)c1=O` (I: [aThr][dV]P[Sar][NMeV] / II: [aThr][dV]P[Sar][NMeV]; ester I:1-I:C, II:1-II:C; linker I:N-II:N via Actinocin(9to1)), the T/C is 173 % of control (dose: 0.3 mg/kg/injection, schedule: Q04DX003 (ip), vehicle: saline); 111 % of control and 201 % of control (dose: 108.0 micrograms/kg/injection, schedule: Q04DX003 (ip), vehicle: saline + alcohol); 118 % of control (dose: 180.0 micrograms/kg/injection, schedule: Q04DX003 (ip), vehicle: saline + alcohol); 116 % of control and 117 % of control (dose: 300.0 micrograms/kg/injection, schedule: Q04DX003 (ip), vehicle: saline + alcohol); 88 % of control (dose: 500.0 micrograms/kg/injection, schedule: Q04DX003 (ip), vehicle: saline + alcohol).

On to `CO[C@H]1Nc2c(ccc(C)c2O)C(=O)N2C=C(/C=C/C(N)=O)C[C@@H]12`, for which the T/C was 154 % of control (dose: 216.0 micrograms/kg/injection, schedule: Q04DX003 (ip), vehicle: saline + alcohol); 194 % of control (dose: 252.0 micrograms/kg/injection, schedule: Q04DX003 (ip), vehicle: saline + alcohol); 176 % of control (dose: 360.0 micrograms/kg/injection, schedule: Q04DX003 (ip), vehicle: saline + alcohol); 176 % of control (dose: 420.0 micrograms/kg/injection, schedule: Q04DX003 (ip), vehicle: saline + alcohol); 90 % of control (dose: 600.0 micrograms/kg/injection, schedule: Q04DX003 (ip), vehicle: saline + alcohol).

On to `CC(CN1CC(=O)NC(=O)C1)N1CC(=O)NC(=O)C1` (stereo not drawn), for which the T/C runs as follows: (dose: 86.4 mg/kg/injection, schedule: Q04DX003 (ip), vehicle: Klucel (hydroxypropylcellulose) (HPC)) 106 % of control; (dose: 100.0 mg/kg/injection, schedule: Q04DX003 (ip), vehicle: Klucel (hydroxypropylcellulose) (HPC)) 100 % of control; (dose: 108.0 mg/kg/injection, schedule: Q04DX003 (ip), vehicle: Klucel (hydroxypropylcellulose) (HPC)) 104 % of control; (dose: 144.0 mg/kg/injection, schedule: Q04DX003 (ip), vehicle: Klucel (hydroxypropylcellulose) (HPC)) 122 % of control; (dose: 180.0 mg/kg/injection, schedule: Q04DX003 (ip), vehicle: Klucel (hydroxypropylcellulose) (HPC)) 102 % of control; (dose: 200.0 mg/kg/injection, schedule: Q04DX003 (ip), vehicle: Klucel (hydroxypropylcellulose) (HPC)) 93 % of control. Besides, the T/C was 107 % of control (dose: 216.0 mg/kg/injection, schedule: Q04DX003 (ip), vehicle: Klucel (hydroxypropylcellulose) (HPC)); 102 % of control (dose: 300.0 mg/kg/injection, schedule: Q04DX003 (ip), vehicle: Klucel (hydroxypropylcellulose) (HPC)); 93 % of control (dose: 400.0 mg/kg/injection, schedule: Q04DX003 (ip), vehicle: Klucel (hydroxypropylcellulose) (HPC)).

Take `O=P1(N(CCCl)CCCl)NCCCO1` (stereo not drawn): the T/C is, setting by setting: (dose: 108.0 mg/kg/injection, schedule: Q01DX001 (ip), vehicle: saline) 476 % of control; (dose: 180.0 mg/kg/injection, schedule: Q01DX001 (ip), vehicle: saline) 475 % of control.

Take `CN(Cc1cnc2nc(N)nc(N)c2n1)c1ccc(C(=O)N[C@@H](CCC(=O)O)C(=O)O)cc1`: the T/C runs as follows: (dose: 10.8 mg/kg/injection, schedule: Q04DX003 (ip), vehicle: sodium bicarbonate) 158 % of control; (dose: 18.0 mg/kg/injection, schedule: Q04DX003 (ip), vehicle: sodium bicarbonate) 188 % of control; (dose: 30.0 mg/kg/injection, schedule: Q04DX003 (ip), vehicle: sodium bicarbonate) 166 % of control; (dose: 50.0 mg/kg/injection, schedule: Q04DX003 (ip), vehicle: sodium bicarbonate) 111 % of control.

Regarding `COc1cc([C@@H]2c3cc4c(cc3[C@@H](OC3OC5COC(C)OC5C(O)C3O)[C@H]3COC(=O)[C@H]23)OCO4)cc(OC)c1O` (stereo partly drawn), the T/C was 110 % of control (dose: 18.0 mg/kg/injection, schedule: Q04DX003 (ip), vehicle: Klucel (hydroxypropylcellulose) (HPC)); 119 % of control (dose: 30.0 mg/kg/injection, schedule: Q04DX003 (ip), vehicle: Klucel (hydroxypropylcellulose) (HPC)); 112 % of control (dose: 50.0 mg/kg/injection, schedule: Q04DX003 (ip), vehicle: Klucel (hydroxypropylcellulose) (HPC)).

For `COc1cccc2c1C(=O)c1c(O)c3c(c(O)c1C2=O)C[C@@](O)(/C(C)=N/NC(=O)c1ccccc1)C[C@@H]3OC1CC(N)C(O)C(C)O1` (stereo partly drawn), the T/C (dose: 6.5 mg/kg/injection, schedule: Q04DX003 (ip), vehicle: water) is 107 % of control; the T/C (dose: 10.8 mg/kg/injection, schedule: Q04DX003 (ip), vehicle: water) is 115 % of control; the T/C (dose: 18.0 mg/kg/injection, schedule: Q04DX003 (ip), vehicle: water) is 105 % of control.
